2 substances from patent US7217805B2, “Bicyclonucleoside analogues” (Sankyo Company, Limited, priority 1999, dated 2007) can be followed below.

For the series, the system named is double stranded DNA with the sequence of 5′-gctaaaaagaaagagagatcg-3′ (SEQ ID NO: 3) and its complementary strand 5′-cgatctctctttctttttagc-3′ (SEQ ID NO: 4). The experiment in a line: Measurement of Tm for determination of activity of triplet formation. The format is binding. To be noted: 7 mM sodium phosphate buffer pH 7.0, 140 mM KCl, 1.5 μM each nucleotide, UV 260 nm.

[3'-NH2-LNA] = 3'-amino-3'-deoxy-2'-O,4'-C-methylene-5-methyluridine; d = 2'-deoxy (DNA)

Turning to “Oligonucleotide (2): 5′-tttttmtntmtmtmt-3′ (SEQ ID NO: 2), m is 5-methyl 2′-deoxycytidine, n is 3′-amino-3′-deoxy-2′-O,4′-C-methylene-5-methyluridine (TTTTTCTTTCTCTCT; sugars from the 5' end d7 [3'-NH2-LNA]1 d7, all C 5-methyl, backbone not given here; triplex-forming oligonucleotide, further chemistry not fully specified)”, the Tm was 55 °C (With MgCl2 (10 mM)) and 44 °C (Without MgCl2).

Regarding “Oligonucleotide (3): natural oligonucleotide which forms a triplet, 5′tttttmtttmtmtmt-3′ (SEQ ID NO: 5), m is 5-methyl-2′deoxycytidine (TTTTTNTTTNTNTNT; 5-methyl-2'-deoxycytidine, chemistry not fully specified)”, the Tm (With MgCl2 (10 mM)) was 44 °C and the Tm (Without MgCl2) is 32 °C.
